Values quoted from earlier work, collected in publication PMC7584369, “Di-bromo-Based Small-Molecule Inhibitors of the PD-1/PD-L1 Immune Checkpoint” (Journal of Medicinal Chemistry, 2020).

Tested on: PD-L1
Conditions: several independent biophysical and cell-based assays; cited from earlier work

With C[C@@H](O)[C@H](NC(=O)N[C@@H](CC(N)=O)c1nc([C@@H](N)CO)no1)C(=O)O [CA-170] as the compound, how does the “direct binding to PD-L1” value read?
The value was “not a direct PD-L1-binder”.
